From patent US9708368B2, “Linear peptide antibiotics” (priority 2012, dated 2017)
Converted amounts (≈) assume the structure as drawn. Read-outs that look alike come from different tables or passages of the source. Square brackets hold non-standard residues; d marks the D form. Peptide text beside a SMILES is read from it. * marks the point of attachment. ξ: configuration not given here. Biphenylcarbonyl(4'-Bu) = CCCCc1ccc(-c2ccc(C(=O)*)cc2)cc1; Benzoyl(4-hexyl) = CCCCCCc1ccc(C(=O)*)cc1; X5 = C[C@H](N*)B1OC2C3CCC(C3(C)C)C2(C)O1; NMeThr(3ξ) = CN[C@H](C(=O)O)C(C)O; Myristoyl = CCCCCCCCCCCCCC(=O)*; NMeE = CN[C@@H](CCC(=O)O)C(=O)O; Thr(3ξ) = CC(O)[C@H](N)C(=O)O; NMeK = CN[C@@H](CCCCN)C(=O)O; Decanoyl = CCCCCCCCCC(=O)*; boroAla = C[C@H](N*)B(O)O; Dab = NCC[C@H](N)C(=O)O; boroGly = OB(O)CN*; ξP = O=C(O)C1CCCN1; βAla = NCCC(=O)O

Assays:
S. aureus SPase [1] = target: T1, S. aureus SPase (Staphylococcus aureus, UniProt P0A070); test: biochemical
E. coli SPase = E. coli SPase (Escherichia coli, UniProt P00803); test: Biochemical SPase activity assay (fluorogenic peptide substrate), E. coli enzyme
[2] = system: Methicillin Resistant Staphylococcus aureus strain USA 300 (NRS384); conditions: Method A; MRSA USA 300 (NRS384); 35° C., 22 hours
Method: (§1) In vitro antimicrobial activity of each compound was determined by measuring minimal inhibitor concentrations (MICs) using the broth micro-dilution technique as approved by the Clinical and Laboratory Standards Institute (CLSI). […] Cells were inoculated onto Trypyticase Soy Agar or Luria Agar containing 16 ng/ml of anhydrotetracycline respectively and grown at 35° C. for 20 hours. Inocula suspensions were made by scraping cells into 1 mL of testing media (cation adjusted Mueller Hinton Broth supplemented with 0.002% v/v Tween-80) and diluting to a final OD600 nm of 0.01.
(§2) Test compounds were prepared in DMSO at a concentration of 10 mg/ml. […] Inocula suspensions were added to the two fold serial dilutions of test compounds to a final density of OD OD600 nm of 0.0005 and incubated stationary at 35° C. for 22 hours, after which the plates were examined visually.

[3] = system: Escherichia coli MC4100 IMP-4213 in which transcription of the SPase encoding gene is under control of a tetracycline inducible promoter; conditions: Method A; E. coli MC4100 IMP-4213 with decreased SPase expression; 35° C., 22 hours
Method: as §1, §2

S. aureus SPase [4] = target: T1, S. aureus SPase; conditions: read-out: IC 50 (nM) S. aureus

Sequence of E. coli SPase (P00803 whole entry): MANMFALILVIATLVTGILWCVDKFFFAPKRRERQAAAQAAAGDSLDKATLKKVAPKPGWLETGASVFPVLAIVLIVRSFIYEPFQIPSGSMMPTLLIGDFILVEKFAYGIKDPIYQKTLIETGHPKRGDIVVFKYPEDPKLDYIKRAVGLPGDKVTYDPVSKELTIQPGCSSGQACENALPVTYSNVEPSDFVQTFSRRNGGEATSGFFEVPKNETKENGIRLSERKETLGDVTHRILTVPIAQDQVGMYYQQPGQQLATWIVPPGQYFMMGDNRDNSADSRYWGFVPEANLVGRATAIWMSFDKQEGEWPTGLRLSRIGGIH
T1 sequence (P0A070 whole entry): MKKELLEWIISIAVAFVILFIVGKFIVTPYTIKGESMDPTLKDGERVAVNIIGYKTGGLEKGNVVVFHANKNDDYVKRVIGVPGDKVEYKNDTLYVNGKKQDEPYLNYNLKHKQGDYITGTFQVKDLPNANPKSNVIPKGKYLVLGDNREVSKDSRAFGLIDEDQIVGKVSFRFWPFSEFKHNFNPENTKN

SMILES	IC50 (S. aureus SPase [1])	IC50 (E. coli SPase)	MIC (μg/mL) S. aureus [2]	MIC (μg/mL) E. coli [3]	IC50 (S. aureus SPase [4])	IC50 (E. coli SPase; read-out: IC 50 (nM) E. coli, E. coli SPase 2.5 nM, substrate 20 μM, 10 minutes pre-incubation)
CCCCc1ccc(-c2ccc(C(=O)N[C@H](CO)C(=O)N[C@H](C)C(=O)NCC(=O)N3CCCC3C(=O)N[C@@H](C)C(=O)N[C@@H](CC(N)=O)C(=O)NCB(O)O)cc2)cc1 (stereo partly shown) [Compound 117] ({Biphenylcarbonyl(4'-Bu)}-[dS][dA]G[ξP]AN-boroGly)	350 nM	300 nM	>64 µg/mL	>64 µg/mL		
CCCCc1ccc(-c2ccc(C(=O)NCCC(=O)N[C@@H](CCCCN)C(=O)N[C@H](C(=O)N[C@@H](C)C(=O)N[C@@H](CC(N)=O)C(=O)NCB(O)O)C(C)O)cc2)cc1 (stereo partly shown) [Compound 118] ({Biphenylcarbonyl(4'-Bu)-βAla}-K[Thr(3ξ)]AN-boroGly)	9.4 nM	1100 nM	0.71 µg/mL (≈ 0.891 µM)	11 µg/mL (≈ 13.8 µM)		
CCCCc1ccc(-c2ccc(C(=O)N[C@H](CO)C(=O)N[C@H](C)C(=O)NCC(=O)N(C)[C@@H](CCC(=O)O)C(=O)N[C@@H](C)C(=O)N[C@@H](CC(N)=O)C(=O)NCB(O)O)cc2)cc1 [Compound 119] ({Biphenylcarbonyl(4'-Bu)}-[dS][dA]G[NMeE]AN-boroGly)	59 nM	290 nM	>64 µg/mL	>64 µg/mL		
CCCCc1ccc(-c2ccc(C(=O)N[C@H](CO)C(=O)N[C@H](C)C(=O)NCC(=O)N(C)[C@@H](CCCCN)C(=O)N[C@@H](C)C(=O)N[C@@H](CC(N)=O)C(=O)NCB(O)O)cc2)cc1 [Compound 120] ({Biphenylcarbonyl(4'-Bu)}-[dS][dA]G[NMeK]AN-boroGly)	100 nM	1600 nM	>64 µg/mL	32 µg/mL (≈ 37.5 µM)		
CCCCCCCCCCCCCC(=O)N[C@H](CO)C(=O)N[C@H](C)C(=O)NCC(=O)N(C)[C@H](C(=O)N[C@@H](C)C(=O)N[C@@H](CC(C)C)C(=O)NCB(O)O)C(C)O (stereo partly shown) [Compound 122] (Myristoyl-[dS][dA]G[NMeThr(3ξ)]AL-boroGly)	7.6 nM	1500 nM	40 µg/mL (≈ 50 µM)	>64 µg/mL		
CCCCCCCCCCCCCC(=O)N[C@H](CO)C(=O)N[C@H](C)C(=O)NCC(=O)N(C)[C@H](C(=O)N[C@@H](C)C(=O)N[C@@H](CC(C)C)C(=O)N[C@@H](C)B1OC2C3CCC(C3(C)C)C2(C)O1)C(C)O (stereo partly shown) [Compound 123] (Myristoyl-[dS][dA]G[NMeThr(3ξ)]AL-X5)	42 nM	220 nM	64 µg/mL (≈ 67.5 µM)	25 µg/mL (≈ 26.4 µM)		
CCCCCCc1ccc(C(=O)N[C@H](CO)C(=O)N[C@H](C)C(=O)NCC(=O)N(C)[C@H](C(=O)N[C@@H](C)C(=O)N[C@@H](CC(N)=O)C(=O)NCB(O)O)C(C)O)cc1 (stereo partly shown) [Compound 124] ({Benzoyl(4-hexyl)}-[dS][dA]G[NMeThr(3ξ)]AN-boroGly)	83 nM	810 nM	>64 µg/mL	>64 µg/mL		
CCCCCCCCCC(=O)N[C@@H](CC(C)C)C(=O)N[C@H](C(=O)N1CCC[C@@H]1C(=O)N[C@H](C(=O)N[C@@H](C)C(=O)N[C@@H](Cc1ccc(O)cc1)C(=O)NCB(O)O)C(C)O)C(C)O (stereo partly shown) [Compound 128] (Decanoyl-L[Thr(3ξ)][dP][Thr(3ξ)]AY-boroGly)	670 nM	3000 nM	>64 µg/mL	>64 µg/mL		
CCCCc1ccc(-c2ccc(C(=O)N[C@@H](CCN)C(=O)N[C@H](C(=O)N[C@@H](C)C(=O)N[C@@H](CCCCN)C(=O)N[C@@H](C)B(O)O)[C@@H](C)O)cc2)cc1 [Compound 238] ({Biphenylcarbonyl(4'-Bu)}-[Dab]TAK-boroAla)					33 nM	4.6 nM
